This assay has as its system IFNγ-Induced NO Production. The assay is described as follows: Nitric Oxide Suppression Assay (Suppression of IFNγ-Induced NO Production). The class given is cell-based. The settings on record: RAW264.7; RAW 264.7 mouse macrophage cells; 2 hour pre-treatment with compound (3 μM to 0.3 nM, 10 point curve); 20 ng/mL interferon gamma, ~18 hour; Griess detection; n=2-3 in duplicates. The protocol: RAW 264.7, a mouse macrophage cell line, was obtained from American Type Culture Collection (Manassas Va.) and maintained in the log phase of growth in Dulbecco's Modified Eagle's Medium (DMEM), 10% heat inactivated fetal calf serum and 100 units/mL antibiotic-antimycotic (AA). Cells were cultured and maintained in a humidified incubator at 37° C. under 5% CO2 and 95% air. Cells were sub-cultured every 3 days by scraping and were not used beyond passage 20. All cell culture supplies were obtained from Life Technologies (Grand Island, N.Y.).
RAW 264.7 cells were plated 1 day in advance of experiment at a concentration of 80,000 cells/well onto CellBIND® 96 well plates (Corning, N.Y.) in a total volume of 100 μL. The next day, pre-treat cells with compounds (from 3 μM to 0.3 nM serially diluted in a 10 point curve) from a 10× stock by adding 10 μL per well in complete DMEM media containing 10% fetal calf serum. The plates were centrifuged for 3 minutes at 400×g at room temperature followed by 2 hour incubation at 37° C. The cells were then incubated overnight at 37° C. with 10 μL of the insult, interferon gamma (R&D Systems, Minneapolis, Minn.), from a 10× stock for a final concentration of 20 ng/mL. The plates were centrifuged for 3 minutes at 400×g at room temperature followed by ˜18 hour incubation at 37° C. The following day, transfer 50 μL cell culture supernatant from each well into a clear bottom 96 well plate and follow the instructions from Promega's Griess Detection Kit #G2930 (Madison, Wis.) which involves the addition of 50 μL of the provided sulfanilamide solution for a 5-10 minute incubation at room temperature. Next add 50 μL of the provided N-1-napthylethylenediamine dihydrochloride (NED) solution for a 5-10 minute incubation at room temperature and protected from light. If any air bubbles were introduced into the well, the plates need to be centrifuged for 5 minutes at 400×g at room temperature to avoid interference with absorbance readings. The plates were read for absorbance within 30 minutes with a filter between 520 nm and 550 nm.
For the ability of compounds to suppress the increase in nitric oxide release, the percent maximal intensity of nitric oxide detected in each well was normalized to that induced by the peak value for 20 ng/mL of interferon gamma alone and plotted against the compound concentration to calculate IC50 values and to control for plate-to-plate variability. Concentration-response data were analyzed using GraphPad Prism (San Diego, Calif.); the IC50 values were derived from a single curve fit to the mean data of n=2-3, in duplicates.
All compounds were dissolved in dimethyl sulfoxide at 10 mM stock solutions and tested at a concentration that the dimethyl sulfoxide levels never exceeded 1%.
Regarding `C[C@@H]1C(=O)C(C#N)=C[C@]2(c3ccccc3)c3nc(N4CCOCC4)ncc3CC[C@@H]12` [Example 19, (6aS,7S,10aR)-7-methyl-2-(morpholin-4-yl)-8-oxo-10a-phenyl-5,6,6a,7,8,10a-hexahydrobenzo[h]quinazoline-9-carbonitrile], the half-inhibitory concentration (IC50) amounted to 36.2 nM.

Consider `Cc1nc(O)c2c(n1)[C@@]1(c3ccccc3)C=C(C#N)C(=O)[C@@H](C)[C@@H]1CC2` [Example 20, (6aS,7S,10aR)-4-hydroxy-2,7-dimethyl-8-oxo-10a-phenyl-5,6,6a,7,8,10a-hexahydrobenzo[h]quinazoline-9-carbonitrile], for which the IC50 was 45 nM.

Consider `Cc1nc(-c2ccccc2)c2c(n1)[C@@]1(c3ccccc3)C=C(C#N)C(=O)[C@@H](C)[C@@H]1CC2` [Example 21, (6aS,7S,10aR)-2,7-dimethyl-8-oxo-4,10a-diphenyl-5,6,6a,7,8,10a-hexahydrobenzo[h]quinazoline-9-carbonitrile], for which the IC50 is 9.94 nM.

As for `Cc1nc(-c2cncnc2)c2c(n1)[C@@]1(c3ccccc3)C=C(C#N)C(=O)[C@@H](C)[C@@H]1CC2` [Example 22, (6aS,7S,10aR)-2,7-dimethyl-8-oxo-10a-phenyl-4-(pyrimidin-5-yl)-5,6,6a,7,8,10a-hexahydrobenzo[h]quinazoline-9-carbonitrile], the IC50 came out at 31.8 nM.

With `Cc1nc(-c2ccoc2)c2c(n1)[C@@]1(c3ccccc3)C=C(C#N)C(=O)[C@@H](C)[C@@H]1CC2` [Example 23, (6aS,7S,10aR)-4-(3-furyl)-2,7-dimethyl-8-oxo-10a-phenyl-5,6,6a,7,8,10a-hexahydrobenzo[h]quinazoline-9-carbonitrile], the IC50 amounted to 6.98 nM.

In the case of `C[C@@H]1C(=O)C(C#N)=C[C@]2(c3ccccc3)c3n[nH]cc3CC[C@@H]12` [Example 24, (5aS,6S,9aR)-6-methyl-7-oxo-9a-phenyl-4,5,5a,6,7,9a-hexahydro-2H-benzo[g]indazole-8-carbonitrile], the half-maximal inhibitory concentration (IC50) turned out to be 67.7 nM.

For the compound `COc1nc(-c2ccccc2F)nc2c1CC[C@H]1[C@H](C)C(=O)C(C#N)=C[C@]21c1ccccc1` [Example 25, (6aS,7S,10aR)-2-(2-fluorophenyl)-4-methoxy-7-methyl-8-oxo-10a-phenyl-5,6,6a,7,8,10a-hexahydrobenzo[h]quinazoline-9-carbonitrile], the half-inhibitory concentration (IC50) is 37.8 nM.

Take `C[C@@H]1C(=O)C(C#N)=C[C@]2(c3ccccc3)c3c(c(-c4cccnc4)nn3C)CC[C@@H]12` [Example 26, (5aS,6S,9aR)-1,6-dimethyl-7-oxo-9a-phenyl-3-(pyridin-3-yl)-4,5,5a,6,7,9a-hexahydro-1H-benzo[g]indazole-8-carbonitrile]: the concentration for half-maximal inhibition (IC50) came out at 1.3 nM.

On to `Cc1nc(-c2ccncc2)c2c(n1)[C@@]1(c3ccccc3)C=C(C#N)C(=O)[C@@H](C)[C@@H]1CC2` [Example 27, (6aS,7S,10aR)-2,7-dimethyl-8-oxo-10a-phenyl-4-(pyridin-4-yl)-5,6,6a,7,8,10a-hexahydrobenzo[h]quinazoline-9-carbonitrile], for which the concentration for half-maximal inhibition (IC50) was 5.9 nM.

In the case of `CC(=O)n1cc2c(n1)[C@@]1(c3ccccc3)C=C(C#N)C(=O)[C@@H](C)[C@@H]1CC2` [Example 28, (5aS,6S,9aR)-2-acetyl-6-methyl-7-oxo-9a-phenyl-4,5,5a,6,7,9a-hexahydro-2H-benzo[g]indazole-8-carbonitrile], the IC50 stood at 39 nM.

Consider `C[C@@H]1C(=O)C(C#N)=C[C@]2(c3ccccc3)c3nc(-c4ccncc4)ncc3CC[C@@H]12` [Example 29, (6aS,7S,10aR)-7-methyl-8-oxo-10a-phenyl-2-(pyridin-4-yl)-5,6,6a,7,8,10a-hexahydrobenzo[h]quinazoline-9-carbonitrile], for which the IC50 was 6.36 nM.

As for `CCN(CC)c1ncc2c(n1)[C@@]1(c3ccccc3)C=C(C#N)C(=O)[C@@H](C)[C@@H]1CC2` [Example 30, (6aS,7S,10aR)-2-(diethylamino)-7-methyl-8-oxo-10a-phenyl-5,6,6a,7,8,10a-hexahydrobenzo[h]quinazoline-9-carbonitrile], the IC50 came to 56.8 nM.

With `CC(C)Oc1nc(-c2ccccc2F)nc2c1CC[C@H]1[C@H](C)C(=O)C(C#N)=C[C@]21c1ccccc1` [Example 31, (6aS,7S,10aR)-2-(2-fluorophenyl)-4-isopropoxy-7-methyl-8-oxo-10a-phenyl-5,6,6a,7,8,10a-hexahydrobenzo[h]quinazoline-9-carbonitrile], the concentration for half-maximal inhibition (IC50) worked out at 272 nM.

Take `COC(=O)n1cc2c(n1)[C@@]1(c3ccccc3)C=C(C#N)C(=O)[C@@H](C)[C@@H]1CC2` [Example 32, methyl (5aS,6S,9aR)-8-cyano-6-methyl-7-oxo-9a-phenyl-4,5,5a,6,7,9a-hexahydro-2H-benzo[g]indazole-2-carboxylate]: the IC50 turned out to be 25.9 nM.

Turning to `Cc1nc(-c2cn[nH]c2)c2c(n1)[C@@]1(c3ccccc3)C=C(C#N)C(=O)[C@@H](C)[C@@H]1CC2` [Example 34, (6aS,7S,10aR)-2,7-dimethyl-8-oxo-10a-phenyl-4-(1H-pyrazol-4-yl)-5,6,6a,7,8,10a-hexahydrobenzo[h]quinazoline-9-carbonitrile], the half-maximal inhibitory concentration (IC50) came to 2.86 nM.

On to `Cc1nc(-c2cnn(C)c2)c2c(n1)[C@@]1(c3ccccc3)C=C(C#N)C(=O)[C@@H](C)[C@@H]1CC2` [Example 35, (6aS,7S,10aR)-2,7-dimethyl-4-(1-methyl-1H-pyrazol-4-yl)-8-oxo-10a-phenyl-5,6,6a,7,8,10a-hexahydrobenzo[h]quinazoline-9-carbonitrile], for which the IC50 was 4.86 nM.

Regarding `C[C@@H]1C(=O)C(C#N)=C[C@]2(c3ccccc3)c3nn(S(C)(=O)=O)cc3CC[C@@H]12` [Example 36, (5aS,6S,9aR)-6-methyl-2-(methylsulfonyl)-7-oxo-9a-phenyl-4,5,5a,6,7,9a-hexahydro-2H-benzo[g]indazole-8-carbonitrile], the IC50 was found to be 69.3 nM.

Turning to `C[C@@H]1C(=O)C(C#N)=C[C@]2(c3ccccc3)c3nn(C(=O)Oc4ccccc4)cc3CC[C@@H]12` [Example 37, phenyl (5aS,6S,9aR)-8-cyano-6-methyl-7-oxo-9a-phenyl-4,5,5a,6,7,9a-hexahydro-2H-benzo[g]indazole-2-carboxylate], the half-inhibitory concentration (IC50) was 60.5 nM.

Turning to `C[C@@H]1C(=O)C(C#N)=C[C@]2(c3ccccc3)c3nn(C(=O)c4ccccc4)cc3CC[C@@H]12` [Example 38, (5aS,6S,9aR)-2-benzoyl-6-methyl-7-oxo-9a-phenyl-4,5,5a,6,7,9a-hexahydro-2H-benzo[g]indazole-8-carbonitrile], the IC50 was determined as 75.2 nM.

As to `C[C@@H]1C(=O)C(C#N)=C[C@]2(c3ccccc3)c3nn(C(=O)CNC(=O)OC(C)(C)C)cc3CC[C@@H]12` [Example 39, tert-butyl {2-[(5aS,6S,9aR)-8-cyano-6-methyl-7-oxo-9a-phenyl-4,5,5a,6,7,9a-hexahydro-2H-benzo[g]indazol-2-yl]-2-oxoethyl}carbamate], the half-maximal inhibitory concentration (IC50) came out at 53.6 nM.

For `C[C@@H]1C(=O)C(C#N)=C[C@]2(c3ccccc3)c3nn(C(=O)c4cscn4)cc3CC[C@@H]12` [Example 40, (5aS,6S,9aR)-6-methyl-7-oxo-9a-phenyl-2-(1,3-thiazol-4-ylcarbonyl)-4,5,5a,6,7,9a-hexahydro-2H-benzo[g]indazole-8-carbonitrile], the IC50 came to 45.4 nM.

On to `C[C@@H]1C(=O)C(C#N)=C[C@]2(c3ccccc3)c3nn(S(=O)(=O)c4ccccc4)cc3CC[C@@H]12` [Example 41, (5aS,6S,9aR)-6-methyl-7-oxo-9a-phenyl-2-(phenylsulfonyl)-4,5,5a,6,7,9a-hexahydro-2H-benzo[g]indazole-8-carbonitrile], for which the IC50 was 1180 nM.

With `C[C@@H]1C(=O)C(C#N)=C[C@]2(c3ccccc3)c3nn(C(=O)CO)cc3CC[C@@H]12` [Example 42, (5aS,6S,9aR)-2-glycoloyl-6-methyl-7-oxo-9a-phenyl-4,5,5a,6,7,9a-hexahydro-2H-benzo[g]indazole-8-carbonitrile], the IC50 stood at 34.2 nM.

Turning to `COc1cccc(-c2nc(C)nc3c2CC[C@H]2[C@H](C)C(=O)C(C#N)=C[C@]32c2ccccc2)c1` [Example 43, (6aS,7S,10aR)-4-(3-methoxyphenyl)-2,7-dimethyl-8-oxo-10a-phenyl-5,6,6a,7,8,10a-hexahydrobenzo[h]quinazoline-9-carbonitrile], the IC50 amounted to 16.5 nM.

Values taken from US9464082B2, “Aryl and arylalkyl substituted pyrazolyl and pyrimidinyl tricyclic enones as antioxidant inflammation modulators” (AbbVie Inc., priority 2014, dated 2016).
